These results are taken from article PMC2073845, “Tracer Studies of Potential Radiosensitizing Agents” (British Journal of Cancer, 1956).

One series has as its system chick fibroblasts. The following applies: cited from earlier work.
For series [1] the following is noted: for injected compound in urine: 5 mg i.v. The text has this:
OPO3Na2 OPO3Na2 OP03H2 ICOH3 CH3 CH3 131I I 82Br CH3 1311 OPO3Na2 OPO3Na2 OP03H2 I II III METHODS AND MATERIALS Counting.-y-emission from the halogens was the basis of detection. The simple technique of placing samples of the organs under a shielded counter could not be used since variations in the thickness of the organs would vary the sample- counter distance, leading to considerable counting errors. This type of error was reduced by locating the sample on a thin aluminium tray midway between two G-10-Pb glass-covered Geiger-Muller tubes in copper sheaths placed 10 cm. apart in a castle of 2 inch lead and connected in parallel to the same scaler. The 50 D. H. MARRIAN AND D. R. MAXWELL sensitivity of the arrangement was about 9000 c.p.m./,tC 52Br. Samples and backgrounds were counted to a standard error of 5 per cent or less. […] The hydroscopic salt (II) was dissolved in 0 9 per cent saline and the concentration determined by ultraviolet spectroscopy (absorption maxima at 232m,u. (M = 70,000) and 290 m,u. (M = 5,800) in 0-01N- hydrochloric acid). […] Exposure to chlorine vapour caused red spots of bromofluoroscein to appear on a yellow background. […] The iodinated compound (III), was dissolved in 0 9 per cent saline and neutralised by addition of sodium hydroxide solution. The purity of the solution was determined by paper electrophoresis at pH 7 (Markham and Smith, 1952). This clearly separated the organic compound from iodide ion, the former being detected by ultraviolet photography and the latter by spraying with starch solution and exposure to chlorine vapour. […] It was dissolved in 0 9 per cent saline before injection. […] C. for 4 hours at pH 4, 6, 7 and 9 and the reaction mixtures examined by paper electrophoresis. […] Animal experiments Rats carring a Walker carcinoma were used as previously described (Marrian and Maxwell, 1956). […] The radioactivity of these planchettes when the organs were being counted was used to calculate the differential absorption ratio (D.A.R.), (Marrian and Maxwell, 1956). In most experiments with the bromo-compound, the time required to count the organ necessitated a decay correction, calculated from the known half-life of 82Br-bromine (36 ? 0*2 hours). […] Upper curve: single counter. Lower curve: double counter. Ordinate: Percentage error in the count.

The nature of series [2]: Radioactivity in blood, plasma and urine as percentage of injected dose, tumour-bearing rats. The text has this: OPO3Na2 OPO3Na2 OP03H2 ICOH3 CH3 CH3 131I I 82Br CH3 1311 OPO3Na2 OPO3Na2 OP03H2 I II III METHODS AND MATERIALS Counting.-y-emission from the halogens was the basis of detection. The simple technique of placing samples of the organs under a shielded counter could not be used since variations in the thickness of the organs would vary the sample- counter distance, leading to considerable counting errors. This type of error was reduced by locating the sample on a thin aluminium tray midway between two G-10-Pb glass-covered Geiger-Muller tubes in copper sheaths placed 10 cm. apart in a castle of 2 inch lead and connected in parallel to the same scaler. The 50 D. H. MARRIAN AND D. R. MAXWELL sensitivity of the arrangement was about 9000 c.p.m./,tC 52Br. Samples and backgrounds were counted to a standard error of 5 per cent or less. […] The hydroscopic salt (II) was dissolved in 0 9 per cent saline and the concentration determined by ultraviolet spectroscopy (absorption maxima at 232m,u. (M = 70,000) and 290 m,u. (M = 5,800) in 0-01N- hydrochloric acid). […] Exposure to chlorine vapour caused red spots of bromofluoroscein to appear on a yellow background. […] The iodinated compound (III), was dissolved in 0 9 per cent saline and neutralised by addition of sodium hydroxide solution. The purity of the solution was determined by paper electrophoresis at pH 7 (Markham and Smith, 1952). This clearly separated the organic compound from iodide ion, the former being detected by ultraviolet photography and the latter by spraying with starch solution and exposure to chlorine vapour. […] It was dissolved in 0 9 per cent saline before injection. […] C. for 4 hours at pH 4, 6, 7 and 9 and the reaction mixtures examined by paper electrophoresis. […] The radioactivity of these planchettes when the organs were being counted was used to calculate the differential absorption ratio (D.A.R.), (Marrian and Maxwell, 1956). In most experiments with the bromo-compound, the time required to count the organ necessitated a decay correction, calculated from the known half-life of 82Br-bromine (36 ? 0*2 hours). […]

A short description of series [3]: Differential absorption ratio (D.A.R.) of organs of rats carrying a Walker carcinoma after injection of the radio-labelled compound. The source says: (§1) OPO3Na2 OPO3Na2 OP03H2 ICOH3 CH3 CH3 131I I 82Br CH3 1311 OPO3Na2 OPO3Na2 OP03H2 I II III METHODS AND MATERIALS Counting.-y-emission from the halogens was the basis of detection. The simple technique of placing samples of the organs under a shielded counter could not be used since variations in the thickness of the organs would vary the sample- counter distance, leading to considerable counting errors. This type of error was reduced by locating the sample on a thin aluminium tray midway between two G-10-Pb glass-covered Geiger-Muller tubes in copper sheaths placed 10 cm. apart in a castle of 2 inch lead and connected in parallel to the same scaler. The 50 D. H. MARRIAN AND D. R. MAXWELL sensitivity of the arrangement was about 9000 c.p.m./,tC 52Br. Samples and backgrounds were counted to a standard error of 5 per cent or less. […] The hydroscopic salt (II) was dissolved in 0 9 per cent saline and the concentration determined by ultraviolet spectroscopy (absorption maxima at 232m,u. (M = 70,000) and 290 m,u. (M = 5,800) in 0-01N- hydrochloric acid). […] The purity of the solution was determined by paper electrophoresis at pH 7 (Markham and Smith, 1952). This clearly separated the organic compound from iodide ion, the former being detected by ultraviolet photography and the latter by spraying with starch solution and exposure to chlorine vapour. […]

On the set-up of series [4]: method as in Mitchell, 1955; Marrian and Maxwell, 1956. The following applies: after intravenous injection; ref Mitchell, 1955; Marrian and Maxwell, 1956; cited from earlier work.
A short description of series [5]: Attempted exchange reactions with ammonium 82Br-bromide in vitro. Format: physicochemical. As to conditions: reactants in molar ratio; lower detection limit 2.0 per cent.
Source text: as §1

Where two headings read alike, the source gives them in different places.

`Cc1c([82Br])c(OP(=O)([O-])[O-])c2ccccc2c1OP(=O)([O-])[O-].[Na+].[Na+].[Na+].[Na+]` [II, tetrasodium 2-methyl-3-82Br-bromo-I: 4-naphthohydroquinone diphosphate]: the antimitotic properties entry in the series on chick fibroblasts (ref Friedmann, Marrian and Simon-Reuss, 1952) is recorded as “established”. Also, the “form of radioactivity in stomach contents (paper electrophoresis)” value in series [1] (6 hours after injection of 10 mg) is recorded as “present as bromide ion”. The “form of radioactivity in urine (paper chromatography)” value in series [1] (rat given 5 mg intravenously) was “most of the radioactivity was present as bromide ion”. Also, the “injected compound in urine” value in series [1] (urine collected from 0 to 2 hours) is recorded as “small amounts”; in series [1] (urine collected from 2 to 6 hours after injection), “None of the injected compound could be detected”. Moreover, the “plasma share of the radioactivity of the whole blood” value in series [2] (1 mg i.v.) was around 67 per cent. For the same compound, the “radioactivity associated with the blood” value in series [2] (after 30 minutes, 1 mg i.v.) was “about 15 per cent of the injected dose”. For the same compound, the “radioactivity excreted in the urine” value in series [2] (of a 1 mg (10.6 uC) dose, during 48 hours) is recorded as 30-35 per cent. Further, in series [3] (1 mg i.v., only exceeded by stomach and contents), the “D.A.R. of the tumour compared with other organs” value is reported as “consistently higher than any of the above organs”.
As for `Cc1c(C)c(OP(=O)(O)O)c([131I])c([131I])c1OP(=O)(O)O` [III, 2: 3-dimethyl-5: 6-di-1311-iodo-I: 4-benzohydroquinone diphosphate], in the series with chick fibroblasts (same test, ref Simon-Reuss, unpublished), the antimitotic properties result was “inactive”. Also, the “form of the label half an hour after injection” value in series [1] (10 mg, by comparison with reported iodide distribution) is “much of the label derived from compound (III) is present as free iodide ion”. In series [1] (10 mg, first 3 hours), the “iodide ion in stomach contents and urine (paper electrophoresis)” value is recorded as “contain large amounts of iodide ion”. For the same compound, the “radioactivity of the thyroid” value in series [3] (10 mg) is recorded as “no more radioactivity than the surrounding tissue”.
Turning to `Cc1cc(OP(=O)(O)O)c2ccccc2c1OP(=O)(O)O` [Synkavit, tetrasodium 2-methyl-I: 4-naphthohydro-quinone diphosphate], the “accumulation in tumour tissue” value in series [4] is “can accumulate in tumour tissue for short periods”.
With `Cc1c(Br)c(OP(=O)([O-])[O-])c2ccccc2c1OP(=O)([O-])[O-].[Na+].[Na+].[Na+].[Na+]` [Tetrasodium 2-methyl-3-bromo-1 4-naphthohydroquinone diphosphate], the “exchange with ammonium 82Br-bromide” value in series [5] was “no exchange could be detected”.
